The values below come from paper PMC5559490, “Synthesis of Saccharumoside-B analogue with potential of antiproliferative and pro-apoptotic activities” (Scientific Reports, 2017).

Each structure is given as a SMILES string.

Assay [1] has as its system CaCo-2 colon cancer cells. As to the kind of experiment: MTT antiproliferative assay, CaCo-2. The class given is cell-based. To be noted: Homo sapiens, Caco-2; MTT assay; cancer cell line; mean of three independent experiments ± S.E.M.; read-out: IC50 CaCo-2 Colon.
Assay [2] concerns caspase-3. As to the kind of experiment: Caspase-3 colorimetric assay, MCF-7. The class given is cell-based, human. To be noted: MCF-7 cells. The protocol:
(§1) Caspases-3, -8 and -9 assays were measured according to manufacturer’s instructions using a caspase colorimetric protease kit (Abcam, Cambridge, MA, USA). Cells were treated with compounds for 48 h. The cells were lysed by the addition of 50 μL of chilled cell lysis buffer and incubated on ice for 10 min. The resulting cell lysate was centrifuged for 1 min at 10,000 g, and the supernatant was collected. The cell lysate containing […] of protein was incubated with […] of 4 mmol/L pNA-conjugated substrates (DEVD-pNA, IETD-pNA and LEHD-pNA; substrates for caspase-3, -8 and -9, respectively) at 37 °C for 3 h. The amount of pNA released was measured at 405 nm using an ELISA microplate reader (Bio rad). The caspases activity was expressed as fold difference, [33].

Assay [3] deals with caspase-3. Briefly: Caspase-3 colorimetric assay, HL-60. The class given is cell-based, human. To be noted: HL-60 cells. The protocol: as §1
Assay [4] has as its system MIA PaCa-2 pancreatic cancer cells. Briefly: MTT antiproliferative assay, MIA PaCa-2. It is filed as cell-based. To be noted: Homo sapiens, MIA PaCa-2; MTT assay; cancer cell line; mean of three independent experiments ± S.E.M.; read-out: IC50 MIA PaCa-2 Pancreatic.
For assay [5], the system named is HL-60 cells. As to the kind of experiment: Cell cycle analysis (PI, flow cytometry), HL-60. It is filed as cell-based, human. To be noted: 24 h. The protocol: (§2) Cancer cells (1 × 10^6/ml) were treated with different concentrations of compound (5 and10 µM) for 24 h, fixed in cold 70% alcohol in PBS, washed, digested with DNase free RNase (400 µg/mL) at 37 °C for 45 min and stained with propidium iodide (10 µg/ml). Cells were analyzed for PI-DNA fluorescence by flow cytometerically using FACS CALIBUR (Becton Dickinson, Franklin Lakes, New Jersey, USA)[28]–[30]. The fluorescence intensity of subG0/GI cell fraction represents the dead cell population.

The subject of a further assay is Bcl-2. Briefly: Quantification of Bcl-2 (ELISA), HL-60. The class given is cell-based, human. As to conditions: HL-60 cells; compared to untreated cells. The protocol:
The intracellular content of Bcl-2 was quantified using the human Bcl-2 ELISA kit (Abcam, Cambridge, MA, USA). For the sample preparation, the cells were lysed with 1X lysis buffer. After 1 h of incubation at room temperature, the sample was spun at 1,000 g for 15 min and the supernatant was used for Bcl-2 measurement. Briefly, 80 μL of sample diluent and 20 μL of sample were added into the wells coated with monoclonal antibody to human Bcl-2, and after that the wells were washed twice with the wash buffer. Next, 50 μL of biotin-conjugate were added into the wells. After 2 h of incubation at room temperature on a microplate shaker, 100 μL of streptavidin-horseradish peroxidase were added. The sample was incubated again for 1 h at room temperature on a microplate shaker. The solution was withdrawn and the wells were washed with 3X wash buffer. Immediately, 100 μL of TMB substrate solution were added. Finally, 100 μL of stop solution were added into each well to stop the enzyme reaction. The absorbance was read using an ELISA reader at 450 and 620 nm wavelengths. Bcl-2 protein concentration was determined from the standard protein graphic using the optical densities of the samples[32].

In another assay the test system is MCF-7 cells. Briefly: Rhodamine-123 mitochondrial membrane potential assay, MCF-7. To be noted: 24 h. The class given is cell-based, human. The protocol: [Worded in the source for another cell line; this cell line is reported under the same test.] Mitochondrial membrane potential changes (ΔΨm) were determined by flow cytometry using rhodamine-123 (green-fluorescent dye)[32]. MIA PaCa-2 pancreatic cancer cells (1 × 10^6 cells/well) were exposed to the isolated compound (5 µM) for 24 h. Further, rhodamine-123 (200 nM) was added to the cells, which were kept in dark for 35 min. The cells were further centrifuged and the pellet was washed with phosphate buffered saline (1 ml). The intensity of fluorescence in the cells represented the mitochondrial membrane potential change (ΔΨm), which was measured using a flow cytometer.

A further assay relates to caspase-8. Briefly: Caspase-8 colorimetric assay, HL-60. It is filed as cell-based, human. As to conditions: HL-60 cells; data not showed. The protocol:
as §1

The subject of the next assay is HL-60 cancer cells. Briefly: Quantification of apoptosis (Annexin V-PI), HL-60. The class given is cell-based, human. As to conditions: HL-60 cells. The text has this:
Apoptotic population of cancer cells was quantified by Annexin V-propidium iodide (PI) staining technique (Abcam, Cambridge, MA, USA) using a flow cytometer as per published technique.

Assay [6] relates to HL-60 cells. As to the kind of experiment: Rhodamine-123 mitochondrial membrane potential assay, HL-60. The class given is cell-based, human. As to conditions: compared to untreated cells.
For another assay, the system named is cytosolic cytochrome c. Briefly: Cytosolic cytochrome c estimation (ELISA), MCF-7. The class given is cell-based, human. As to conditions: MCF-7 cells; 5, 10 µM. The protocol:
Cells were collected by centrifugation at 600 g for 5 min at 4 °C. The cell pellets were washed once with ice-cold PBS and resuspended in cytosol extraction buffer (20 mM Hepes-KOH, pH 7.5, 10 mM KCl, 1.5 mM MgCl2, 1 mM sodium EDTA, 1 mM sodium EGTA, 1 mM dithiothreitol and 0.1 mM PMSF) containing 250 mM sucrose on ice for 10 min. The cells were homogenized with the grinder on ice. Further, the homogenates were centrifuged at 700 g for 10 min at 4 °C. The supernatants were centrifuged at 10,000 × g for 30 min at 4 °C. Supernatant was collected as cytosolic fraction.
Cytosolic cytochrome c levels were determined using quantitative sandwich enzyme immunoassay using microplate reader. Sample or standard (100 μL) was added into each well and incubated for 2 h at room temperature. The wells were washed several times with wash buffer. The plate was inverted and cleaned with paper toweling. Cytochrome c conjugate (200 μL) was added into each well and incubated for 2 h at room temperature. Wells were washed several times with wash buffer. Substrate solution (200 μL) was added into each well and incubated for 30 min at room temperature. Finally, stop solution (50 μL) was added into wells. The optical density (absorbance) of each well was determined using microplate reader at a 450 nm wavelength.

The subject of a further assay is HL-60 leukemia cells. Briefly: MTT antiproliferative assay, HL-60. The class given is cell-based, human.
The test system of the next assay is MCF-7 cancer cells. Briefly: Cell cycle analysis (PI, flow cytometry), MCF-7. The class given is cell-based, human. To be noted: MCF-7 cells; 5 and 10 µM; 24 h. The protocol: as §2
Assay [7] concerns human peripheral blood mononuclear cells (PBMC). As to the kind of experiment: MTT assay on normal PBMC. As to conditions: MTT assay, normal cells, 48 h, read-out: IC50 PBMC (normal cells). It is filed as cell-based.

With `COc1cc(CO)ccc1OC1OC(COC(=O)c2ccc(F)cc2)C(O)C(O)C1O` (centres unmarked) [Compound 9f, (6-(4-(hydroxymethyl)-2-methoxyphenoxy)-tetrahydro-3,4,5-trihydroxy-2H-pyran-2-yl)methyl 4-fluorobenzoate], the IC50 in [1] was 8.66 ± 0.72 µM; in [4] it was 12.9 ± 0.52 µM; in the assay on HL-60 leukemia cells (Homo sapiens, HL-60, MTT assay, cancer cell line, mean of three independent experiments ± S.E.M., read-out: IC50 HL-60 Leukemia), 4.43 ± 0.35 µM; in [7], greater than 100 µM. In addition, the “effect on caspase-3 activity” value was “enhanced caspase-3 and -9 activities” in the assay with caspase-3 [2]; “enhanced caspase-3 and -9 activities” in the assay on caspase-3 [3]. In addition, the “effect on cell cycle distribution” value in the assay with HL-60 cells [5] and with MCF-7 cancer cells was “cell cycle arrest at G0/G1 phase” in each case. Besides, the “effect on Bcl-2 levels” value in the assay on Bcl-2 is “dose dependent inhibition of Bcl-2”. Also, the “mitochondria membrane potential loss” value stood at 41.33 ± 1.43% with MCF-7 cells (5 µM), 52.67 ± 2.33% in the assay on MCF-7 cells (10 µM), 55.32 ± 2.14% in the assay with HL-60 cells [6] (5 µM) and 65.56 ± 2.56% in the assay with HL-60 cells [6] (10 µM). Also, in the assay on caspase-8, the “effect on caspase-8 activity” value is given as “did not exhibit considerable effect”. In the assay on HL-60 cancer cells, the apoptotic cell population result is reported as “increase in the early apoptotic to late apoptotic cells in a dose-dependent fashion”. Further, in the assay with cytosolic cytochrome c, the “effect on cytosolic cytochrome c levels” value was “dose dependently increased”. Besides, the “anti-proliferative effect at 24 h” value in the assay on HL-60 leukemia cells (HL-60 cells, 24 h, versus camptothecin (positive control)) is reported as “better antiproliferative effect than camptothecin”.
